d = 2'-deoxy (DNA); m = 2'-O-methyl
Columns and labels:
[1] = test system: HIV-1 IIB; experiment: CPE-based inhibition of acute infection of MT-4 cells (MTT); assay type: cell-based
Procedure: CPE based infection experiments were performed using MT-4 cells (Pauwels et al. (1988) J. Virol. Meth. 20:309; Papp et al. (1997) AIDS Research and Human Retroviruses In Press). MT-4 cells were obtained from the AIDS Research and Reference Reagent Bank, Division of AIDS, NIAID, NIH contributed Dr. Richman (Pauwels et al. (1988) J. Virol. Meth. 20:309) T-lymphoid H9 (HUT-78) cells were obtained from Dr. Robert Gallo, National Cancer Institute, Bethesda, Md. (Popovic et al. (1984) Science 224:497; Gazdar et al. (1980) Blood 55:409). Cell cultures were maintained in RPMI 1640 medium (GIBCO Laboratories, Grand Island, N.Y.) supplemented with 20% (H9 cells), or 10% (MT-4 cells) heat-inactivated fetal bovine serum (Sigma Chemical Co., St. Louis, Mo.) 250 units/ml penicillin, 250 μg/ml streptomycin, 2 mM 1-glutamine, and 10 mM HEPES (N-2-hydroxyethylpiperazine-N′-2-ethanesulfonic acid) buffer (complete medium) at 37° C. in 5% CO2. HIV-1 IIB was originally obtained from Dr. Robert Gallo, National Cancer Institute (Popovic (1984) Science 224:497). Virus stocks of HIV-1 were prepared from cell-free filtered supernatant of chronically infected H9 cultures by the shaking method as previously described by Vujoie et al. (J. Infectious Diseases (1988) 157:1047).
Experiments were performed under two sets of conditions. […] The cultures were incubated for 6 days and CPE measured using the MTT dye method. […]

[2] = test system: HIV-2 (ROD); experiment: XTT-based anti-HIV assay, HIV-2; assay type: cell-based
From the text: (§1) The initial experiment performed involved evaluation of Oligos 12, 32, and 41 against three laboratory strains of HIV-1 (IIIB, RF and SK1) and one strain of HIV-2 (ROD) in parallel with the positive control compound ddC in the XTT-based anti-HIV assay. All these oligonucleotides are active against both HIV-1 and HIV-2.
(§2) CEM-SS sells (AIDS Research and Reference Reagent Program, NIH) or other established human T cell lines used in these experiments were passaged in T-150 flasks for use in the assay. On the day preceding the assay, the cells were split 1:2 to assure they would be in an exponential growth phase at time of infection. On the day of assay the cells were washed twice with tissue culture medium and resuspended in fresh tissue cultures medium. Total cell and viability counting was performed using a hemacytometer and trypan blue dye exclusion. Cell viability was greater than 95% for the cells to be utilized in the assay. The cells were pelleted and resuspended at 2.5×10^4 cells per ml in tissue culture medium. Cells were added to the drug-containing plates in a volume of 50 μl.
(§3) A pretitered aliquot of virus was removed from the freezer −80° C.) and allowed to thaw slowly to room temperature in a biological safety cabinet. The virus was resuspended and diluted into tissue culture medium such that the amount of virus added to each well in a volume of 50 μl will be the amount determined to give complete cell killing at 6 days post-infection. In general the virus pools produced with the IIIB isolate of HIV required the addition of 5 μl of virus per well.
Each plate contained cell control wells (cells only), virus control wells (cells plus virus), drug toxicity control wells (cells plus drug only), drug colorimetric control wells (drug only) as well as experimental wells (drug plus cells plus virus).
After 6 days of incubation at 37° C. in a 5% CO2 incubator, the test plates were analyzed by staining with the tetrazolium dye XTT. XTT-tetrazolium is metabolized by the mitochondrial enzymes of metabolically active cells to a soluble formazan product, allowing the rapid quantitative analysis of the inhibition of HIV-induced cell killing by anti-HIV test substances. On day 6 post-infection plates were removed from the incubator and observed. The use of round bottom microtiter plates allows rapid macroscopic analysis of the activity of a given test compound by the evaluation of pellet size. The results of the macroscopic observations were confirmed and enhanced by further microscopic analysis.
XTT solution was prepared daily as a stock of 1 mg/ml in PBS. Phenazine methosulfate (PMS) solution was prepared at 15 mg/ml in PBS and stored in the dark at −20° C. XTT/PMS stock was prepared immediately before use by diluting the PMS 1:100 into PBS and adding 40 μl per ml of XTT solution. Fifty microliters of XTT/PMS was added to each well of the plate and the plate was incubated for an additional 4 hours at 37° C. Adhesive plate sealers were used in place of the lids, the sealed plate was inverted several times to mix the soluble formazan product and the plate was read spectrophotometrically at A450 nm with a Molecular Devices Vmax plate reader.

[3] = test system: low passage, clinical strains of HIV-1; experiment: Anti-HIV activity in fresh human peripheral blood mononuclear cells; assay type: cell-based; conditions: fresh human PBMC; varies from strain to strain
Procedure: In another experiment, the anti-HIV activity of Oligos 12, 32, and 41 was evaluated against a variety of low passage, clinical strains of HIV-1 in fresh human peripheral blood mononuclear cells. These strains include viruses obtained from pediatric patients attending the Children's Hospital University of Alabama at Birmingham as well as viruses representative of the various HIV-1 clades found throughout the world, shown below in TABLE 4.
Fresh human peripheral blood lymphocytes (PBL) were isolated from voluntary Red Cross donors, seronegative for HIV and HBV. Leukophoresed blood was diluted 1:1 with Dulbecco's phosphate buffered saline (PBS), layered over 14 ml of Ficoll-Hypaque density gradient in a 50 ml centrifuge tube. Tubes were then centrifuged for 30 minutes at 600×g. Banded PBLs were gently aspirated from the resulting interface and subsequently washed 2× with PBS by low speed centrifugation. After final wash, cells were enumerated by trypan blue exclusion and re-suspended at 1×10^7/ml in RPMI 1640 with 15% Fetal Bovine Serum (FBS), 2 mM L-glutamine, […] PHA-P and allowed to incubate for 48–72 hours at 37° C. After incubation, PBLs were centrifuged and reset in RPMI 1640 with 15% FBS, 2 mM L-glutamine, 100 U/ml penicillin, 100 μg/ml streptomycin, 10 μg/ml gentamycin, and 20 U/ml recombinant human IL-2. PBLs were maintained in this medium at a concentration of 1–2×10^6/ml with bi-weekly medium changes, until use in assay protocol. […]
In the standard PBL assay (MOI: 0.2), the assay was ended on day 7 following collection of cell free supernatant samples for reverse transcriptase activity assay. In the low MOI PBL assay (MOI: 0.02), supernatant samples were collected on day 6, day 11, and day 14 post-infection and analyzed for RT activity. […] Opti-Fluor O was added to each sample and incorporated radioactivity was quantified utilizing a liquid scintillation counter, (Wallac 1450 Microbetaplus, Gaithersburg, Md.).

[4] = In vivo bioavailability after a single dose, rats; conditions: intravenous and oral
[5] = In vivo bioavailability after a single dose, monkeys; conditions: intravenous and oral
[6] = test system: HIV-1 (IIIB, RF and SK1); experiment: XTT-based anti-HIV assay, laboratory strains of HIV-1; assay type: cell-based
From the text: as §1
as §2, with “Cells were added to the drug-containing plates in a volume of 50 μl.” left out
as §3, with “In general the virus pools produced with the IIIB isolate of HIV required the addition of 5 μl of virus per well.” left out
After 6 days of incubation at 37° C. in a 5% CO2 incubator, the test plates were analyzed by staining with the tetrazolium dye XTT. XTT-tetrazolium is metabolized by the mitochondrial enzymes of metabolically active cells to a soluble formazan product, allowing the rapid quantitative analysis of the inhibition of HIV-induced cell killing by anti-HIV test substances. […]
XTT solution was prepared daily as a stock of 1 mg/ml in PBS. […] Adhesive plate sealers were used in place of the lids, the sealed plate was inverted several times to mix the soluble formazan product and the plate was read spectrophotometrically at A450 nm with a Molecular Devices Vmax plate reader.

[7] = test system: monocyte-macrophage-tropic strains BaL and ADA; experiment: Anti-HIV assay in fresh human monocyte-macrophages; assay type: cell-based, HIV-1
Procedure: In addition to these T-tropic strains, the activity of the compounds was also evaluated against the monocyte-macrophage strains BaL and ADA. Oligos 12 and 32 according to the invention, as well as Oligo 41 are active against low passage clinical T-tropic strains of HIV-1. The activity of the compounds varies from strain to strain. The compounds were not active against the monocyte-macrophage-tropic strains BaL and ADA.
For isolation of adherent cells, 3×10^6 non-PHA stimulated peripheral blood cells were resuspended in Hanks buffered saline (with calcium and magnesium) supplemented with 10% human AB serum. The cells were placed in a 24-well microtiter plate at 37° C. for 2 hours. Non-adherent cells were removed by vigorously washing six times. The adherent cells were cultured for 7 days in RPMI 1640 tissue culture medium with 15% fetal bovine serum. The cultures were carefully monitored for confluency during this incubation period. Infection of the cells was performed with the monocytotropic HIV-1 strains BaL or ADA and the matched pair of AZT-sensitive and AZT-resistant virus isolates. Each of these virus isolates was obtained from the NIAID AIDS Research and Reference Reagent Program. High titer pools of each of these viruses have been harvested from infected cultures of peripheral blood adherent cells and frozen in 1.0 ml aliquots at −80° C. Monocyte-macrophage monolayers were infected at an MOI of 0.1. Compounds to be evaluated in the monocyte-macrophage assay are added to the monolayers shortly before infection in order to maximize the potential for identifying active compounds.
At 2 days post-infection, the medium was decanted and the cultures washed twice with complete medium in order to remove excess virus. […] Control curves are generated in each assay to accurately quantify the amount of capsid protein in each sample. Data was obtained by spectrophotometric analysis at 450 nm using a plate reader (Molecular Devices Vmax). P24 concentrations were calculated from the optical density values by use of the Molecular Device software package Soft Max.

Row | Substance | inhibition of HIV-1 infection ([1]; MT-4 cells treated during initial infection (FIG. 1)) | inhibition of HIV-1 infection ([1]; MT-4 cells treated following initial infection, post-viral adsorption (FIG. 2)) | inhibition of HIV-2-induced cell killing ([2]; XTT assay (FIG. 3)) | activity against low passage clinical T-tropic strains of HIV-1 [3] | bioavailability [4] | level of activity against the HIV-2 strain ROD ([2]; compared with the HIV-1 strains, XTT assay) | activity against HIV-2 ([2]; strain ROD, XTT assay) | bioavailability [5] | activity against HIV-1 [6] | activity against monocyte-macrophage-tropic strains BaL and ADA [7]
1 | 4×4: 21mer phosphorothioate linked oligonucleotide, deoxyribonucleotides flanked on each side by four 2′-O-methyl ribonucleotides; SEQ ID NO:1 (UCGCACCCATCTCTCTCCUUC; sugars from the 5' end m4 d13 m4, all phosphorothioate, methylation of C not given here) | inhibition of HIV-1 infection | inhibition of HIV-1 infection | inhibit HIV-2-induced cell killing |  |  |  |  |  |  | 
2 | UCGCACCCATCTCTCTCCUUC (chemistry not given here) [Oligo 12] |  |  |  | active | intravenously and orally bioavailable | enhanced level of activity | active | intravenously and orally bioavailable | active | not active

From US7173014B2, “HIV-specific synthetic oligonucleotides and methods of their use” (priority 1997, dated 2007)
